Data published in ChEMBL document CHEMBL4414640, “Antiproliferative Pterocarpans and Coumestans from Lespedeza bicolor” (2019).
Active and inactive are the calls of the source. The rule behind the calls is not given here.

Legend:
Jurkat [1] = test: Antiproliferative activity against human Jurkat cells at 5 to 100 uM incubated for 48 hrs by MTS assay; format: functional, cell-based
Jurkat [2] = test: Induction of apoptosis in human Jurkat cells at 10 uM incubated for 24 to 48 hrs by phase contrast microscopic method; format: functional, cell-based
Jurkat [3] = test: Induction of apoptosis in human Jurkat cells assessed as viable cells at 10 uM incubated 48 hrs by annexin-V and 7AAD staining based flow cytometry (reference value: 91.9%); format: functional; conditions: read-out: Activity
Jurkat [4] = test: Induction of apoptosis in human Jurkat cells assessed as early apoptotic cells at 10 uM incubated 48 hrs by annexin-V and 7AAD staining based flow cytometry (reference value: 3.16%); format: functional
Jurkat [5] = test: Induction of apoptosis in human Jurkat cells assessed as late apoptotic cells at 10 uM incubated 48 hrs by annexin-V and 7AAD staining based flow cytometry (reference value: 3.78%); format: functional
Jurkat [6] = test: Induction of apoptosis in human Jurkat cells assessed as necrotic cells at 10 uM incubated 48 hrs by annexin-V and 7AAD staining based flow cytometry (reference value: 1.16%); format: functional
Jurkat [7] = test: Induction of apoptosis in human Jurkat cells assessed as downregulation in BCL2 protein expression at 10 uM incubated for 48 hrs by Western blot analysis; format: functional, cell-based
Jurkat [8] = test: Induction of apoptosis in human Jurkat cells assessed as increase in PARP cleavage at 10 uM incubated for 48 hrs by Western blot analysis; format: functional, cell-based
Jurkat [9] = test: Induction of mitochondrial membrane potential loss in human Jurkat cells assessed as membrane potential at 10 uM incubated for 48 hrs by TMRM staining based flow cytometric analysis (reference value: 94.1%); format: functional
Jurkat [10] = test: Induction of cell cycle arrest in human Jurkat cells assessed as accumulation at G1 phase at 10 uM incubated for 48 hrs by PI staining based cell counting method (reference value: 71.4%); format: functional
Jurkat [11] = test: Induction of cell cycle arrest in human Jurkat cells assessed as accumulation at S phase at 10 uM incubated for 48 hrs by PI staining based cell counting method (reference value: 12.2%); format: functional
Jurkat [12] = test: Induction of cell cycle arrest in human Jurkat cells assessed as accumulation at G2/M phase at 10 uM incubated for 48 hrs by PI staining based cell counting method (reference value: 16.7%); format: functional

COc1c(CC=C(C)C)c(O)cc2oc(=O)c3c4cc(O)c(O)c(CC=C(C)C)c4oc3c12 was tested, and the Activity (Jurkat [1]) was “Active”, the Activity (Jurkat [2]) was “Active” and the viability at 10 µM (Jurkat [3]) was 37.6%. It also gave an Activity (Jurkat [4]) of 12.3%, an Activity (Jurkat [5]) of 46.7% and an Activity (Jurkat [6]) of 3.4%. For the same compound, the Activity (Jurkat [7]) was “Active”, the Activity (Jurkat [8]) was “Active” and the Activity (Jurkat [9]) was 12.9%. It also gave an Activity (Jurkat [10]) of 82.3%, an Activity (Jurkat [11]) of 10.9% and an Activity (Jurkat [12]) of 7.05%.

COc1c(CC=C(C)C)c(O)cc2c1[C@@H]1Oc3c(ccc4c3C=CC(C)(C)O4)[C@@H]1CO2 was tested, and the Activity (Jurkat [1]) was “Active”.

For COc1cc2c(cc1O)OC1c3c(OC)cc(O)c(C/C=C(\C)CCC=C(C)C)c3OCC21 (stereo unspecified), the Activity (Jurkat [1]) was “Active”, the Activity (Jurkat [2]) was “Active” and the viability at 10 µM (Jurkat [3]) was 43.9%. For the same compound, the Activity (Jurkat [4]) was 11.3%, the Activity (Jurkat [5]) was 40.4% and the Activity (Jurkat [6]) was 4.43%. For the same compound, the Activity (Jurkat [7]) was “Active”, the Activity (Jurkat [8]) was “Active” and the Activity (Jurkat [9]) was 46.8%. It also gave an Activity (Jurkat [10]) of 82.1%, an Activity (Jurkat [11]) of 8.78% and an Activity (Jurkat [12]) of 9.3%.

For COc1c(CC=C(C)C)c(O)cc2c1[C@@H]1Oc3c(ccc(O)c3CC=C(C)C)[C@@H]1CO2, the Activity (Jurkat [1]) was “Active”.

COc1c(C/C=C(\C)CCC=C(C)C)c(O)cc2c1[C@@H]1Oc3c(cc(O)c4c3C=CC(C)(C)O4)[C@@H]1CO2 was tested, and the Activity (Jurkat [1]) was “Active”.

For COc1c(CC=C(C)C)c(O)cc2oc(=O)c3c4cc(O)c5c(c4oc3c12)C=CC(C)(C)O5, the Activity (Jurkat [1]) was “Active”.

COc1c(CC=C(C)C)c(O)cc2c1[C@@H]1Oc3c(cc(O)c4c3C=CC(C)(C)O4)[C@@H]1CO2 was tested, and the Activity (Jurkat [1]) was “Active”.

For COc1c(CC=C(C)C)c(O)cc(O)c1-c1oc2c3c(c(O)cc2c1C=O)OC(C)(C)C=C3, the Activity (Jurkat [1]) was “Active”.

For COc1c(C/C=C(\C)CCC=C(C)C)c(O)cc(O)c1-c1oc2c3c(c(O)cc2c1C=O)OC(C)(C)C=C3, the Activity (Jurkat [1]) was “Active”.
